Laboratory results taken from US5759995A, “Antiviral treatment” (priority 1996, dated 1998).

How the values were obtained:
HSV-2 [1] = test: Multiplicity of infection study using the HSV-2 ELISA assay; type: cell-based, Herpes Simplex virus 2; conditions: 18 hours
Experimental: (§1) The ability of cyclomarin-A to inhibit HSV-2 was tested in a culture-based ELISA assay. This assay measures viral glycoprotein inserted into the surface membrane of infected cells, a step in the process of viral replication. Vero cells (African Green monkey kidney cells) were grown in RPMI-1640 medium with L-glutamine (Quality Biological, Gaithersburg, Md.) with 5% fetal bovine serum (FBS) and passaged twice weekly by trypsinization. These were plated in 96-well sterile tissue culture plates at 2×10^4 cells/well. After incubation overnight at 37° C. in a humidified atmosphere with 5% CO2, wells were inoculated with 1000 plaque forming units per well (PFU/well) HSV-2 (MacIntyre strain, ATCC # VR-539), previously titered by plaque assay and stored at -80° C. Virus was absorbed for 1 hour. Cyclomarin-A was diluted to concentrations between 10^-7 g/ml and 10^-4 g/ml in 50% DMSO and added to the cells in a final volume of 1.5 μl with 150 μl RPMI and 1% FBS. The final DMSO concentration was 0.5%. Plates were incubated for 18 hours at 37° C., and fixed with 10% formalin to inactivate the virus.
(§2) Plates were incubated for 1 hour with a rabbit anti-HSV-2 IgG antibody diluted 1:5000 (DAKO, Carpenteria, Calif., catalog #B116), washed with PBS and incubated another hour with an HRP-labeled goat anti-rabbit antibody diluted 1:4000 (DAKO, catalog #PO448). After washing with PBS, TMB substrate was added for 15 minutes and reaction was stopped with addition of 1M phosphoric acid. OD was measured spectrophotometrically at a wavelength of 450 nm. Percent inhibition of HSV-2 was calculated against an infected, vehicle control (DMSO) with no drug added.
The effect of multiplicity of virus infection on cyclomarin-A activity was examined using the HSV-2 ELISA assay described in Example 1. Vero cell cultures were inoculated with HSV-2 to a final concentration of 500, 1000, 2500, and 5000 PFU/well. After cyclomarin-A was added to cells in 150 μl RPMI and 1% FBS, cells were incubated for 18 hours at which time the ELISA assay was completed. Percent inhibition of HSV-2 replication was calculated against an infected, vehicle control (DMSO) at the appropriate MOI with no drug added.

HSV-2 [2] = test: Combination study with acyclovir using the HSV-2 ELISA assay; type: cell-based, Herpes Simplex virus 2; conditions: cyclomarin-A 0 to 16 μg/ml, acyclovir 0 to 5 μg/ml
Experimental: as §1, with “The final DMSO concentration was 0.5%. Plates were incubated for 18 hours at 37° C., and fixed with 10% formalin to inactivate the virus.” left out
as §2, with “After washing with PBS, TMB substrate was added for 15 minutes and reaction was stopped with addition of 1M phosphoric acid.” left out, “added. […]” for “added.”

uninfected Vero cells = test: Vero cell growth inhibition (SRB stain); type: cell-based, African Green monkey; conditions: 48 hours
Experimental: The effect of cyclomarin-A on the growth of uninfected Vero cells was examined. Vero cells were grown in RPMI with 5% FBS and passaged twice weekly by trypsinization. These were plated in 96 well sterile tissue culture plates at 2×10^4 cells/well in 200 μl and incubated overnight at 37° C. in a humidified atmosphere with 5% CO2. Cyclomarin-A (10 mg/ml stock solution) was serially diluted (100, 50, 25 and 12.5 μg/ml final concentrations) in 100% DMSO, and added to the cells in a volume of 2 μl. Final DMSO concentration was 1%. Plates were incubated at 37° C. for 48 hours. Cells were fixed by addition of 50% TCA to each well. Plates were incubated at 4° C. for 1 hour. After washing cells with distilled water 0.4% SRB (sulforhodamine B in 1% acetic acid) stain was added to each well. After 25 minutes the stain was washed away with 1% acetic acid and wells were allowed to dry. The remaining stain was resolubilized in 10 mM Tris pH 10.0. Optical density (OD) was determined spectrophotometrically at 650 nm. Percent inhibition of cell growth was calculated based on no drug, vehicle (1% DMSO) control wells as 100%.

## COC(c1ccccc1)[C@@H]1NC(=O)[C@H](C)NC(=O)[C@H](CC(C)CO)N(C)C(=O)[C@H](C(O)c2cn(C(C)(C)C3CO3)c3ccccc23)NC(=O)[C@H](C(C)C=C(C)C)NC(=O)[C@H](CC(C)C)N(C)C(=O)[C@H](C(C)C)NC1=O (stereo partly shown) [cyclomarin-A]
HSV-2 [1]; 6.25 μg/ml cyclomarin-A, 500 PFU/well
  Percent inhibition of HSV-2 replication: 51%
HSV-2 [1]; 6.25 μg/ml cyclomarin-A, 1000 PFU/well
  Percent inhibition of HSV-2 replication: 40%
HSV-2 [1]; 6.25 μg/ml cyclomarin-A, 2,500 PFU/well
  Percent inhibition of HSV-2 replication: 17%
HSV-2 [1]; 6.25 μg/ml cyclomarin-A, 5000 PFU/well
  Percent inhibition of HSV-2 replication: no detectable inhibition
HSV-2 [2]
  Interference with acyclovir in combination: no interference with acyclovir
Uninfected Vero cells; 100 μg/ml
  Percent inhibition of cell growth of uninfected Vero cells: 27-33%
Uninfected Vero cells; concentrations below 50 μg/ml
  Effect on growth of uninfected Vero cells: no effect on cell growth
